# Test results as given in US20060173015A1, “Cyclohexyldiamines as selective alpha 1a/1d adrenoreceptor antagonists for the treatment of benign prostatic hypertrophy and lower urinary tract symptoms” (priority 2004, published 2006).
# What was measured:
# [1] = tested on: Prostatic Intraurethral Pressure (IUP); experiment: Phenylephrine-induced prostatic IUP in an anesthetized canine model; type: in vivo; conditions: anesthetized dog
# Procedure: (§1) In-Vivo Evaluation of α1-Adrenergic Antagonists on Prostatic Intraurethral Pressure (IUP) and Mean Arterial Pressure (MAP) in an Anesthetized Canine Model
# (§2) An anesthetized dog was fitted with a balloon catheter for the measurement of changes in prostatic IUP and with a non-invasive blood pressure (NIBP) cuff for determination of MAP.
# (§3) The pressor effects of challenge doses (i.v.) of the α-adrenergic agonist phenylephrine upon IUP and MAP were measured before and at various time points after a single dose (i.v.) of an α-adrenergic antagonist test compound (Compound 69) of the present invention.
# (§4) Each treatment group was dosed with a test compound (0.01, 0.03, 0.1 and 0.5 mg/kg) in four separate experiments. The first challenge dose of phenylephrine was administered 30 mins prior to the test compound dose and at 30 min intervals thereafter for a total time period of 5 hrs (i.e at time minus 30 mins, time plus 30 mins, 1 hr, 1.5 hrs, 2 hrs, 2.5 hrs, 3 hrs, 3.5 hrs, 4 hrs, 4.5 hrs and 5 hrs).
# (§5) The animals were fasted overnight, anesthetized with propofol (4 mg/kg IV or to effect), then intubated and anesthesia maintained using inhalation isoflurane (1-2% in oxygen at a flow rate of 2 l/min) with animals breathing spontaneously.
# A 7F Fogarty balloon catheter lubricated with a water-soluble jelly was inserted into the urethra and advanced into the bladder (approximately 40 cm). The balloon was inflated with approximately water (0.2 mL). The catheter was slowly withdrawn from the bladder to just past the point of first resistance from the bladder neck in order to position the balloon within the prostatic urethra. The balloon was then inflated to approximately 0.7 mL. The balloon port of the catheter was connected to a Gould Statham pressure transducer, the output of which was connected to the pressure input of a Physio Control VSM1 Patient Monitor.
# (§6) A test compound was administered via the cephalic vein using an appropriately sized IV catheter (Surflo, Terumo Medical Corporation or equivalent).
# (§7) Prior to test compound administration, IUP and MAP responses to an individualized dose of phenylephrine (either 10 or 15 μg/kg IV, depending on the individual animal's response) was repeated 2 to 3 times to establish a baseline response. After test compound administration, the individualized phenylephrine dose was administered to each animal at 30 minute intervals over a period of 5 hours.
# (§8) Data for phenylephrine-induced changes in IUP and MAP were tabulated for each treatment group and each experiment. A mean value and standard deviation for the phenylephrine-induced changes to the effect of a test compound on IUP and MAP at each dose was calculated and tabulated for each treatment group over the length of the 5.5 hour study.
# [2] = tested on: Mean Arterial Pressure (MAP); experiment: Phenylephrine-induced MAP in an anesthetized canine model; type: in vivo; conditions: anesthetized dog
# Procedure: as §1, §2, §3, §4, §5
# Blood pressure was measured non-invasively using a Critikon 8100 monitor. An infant blood pressure cuff was placed on a forelimb. Measurements were made automatically at 1-minute intervals during recording periods. […] Care was taken to accurately correlate the time of the MAP readings with the time of the phenylephrine dose. Recording periods typically lasted from 5 minutes before phenylephrine administration to 10 minutes after. The monitor was turned off between recording periods to allow the arterial blood vessels of the forelimb to recover from repeated cuff inflations.
# Because of the variability of the MAP value, several values recorded during a five minute “control” period prior to the phenylephrine challenge dose were averaged to establish a mean baseline value for measuring the phenylephrine-induced change in MAP.
# MAP readings also varied during the response to the phenylephrine challenge. A visual peak MAP value, seen on the monitor at about 3 minutes after the challenge dose, was recorded and used to calculate the maximum phenylephrine induced change in MAP. Additionally, MAP values were recorded at one minute intervals and curve fitted to estimate a maximum MAP value. The curve fitted maximum value was used to confirm the visual maximum value.
# as §6, §7, §8
# [3] = 0.01 mg/kg i.v., 0 hrs (baseline)
# [4] = 0.01 mg/kg i.v., 0.5 hrs after dose
# [5] = 0.01 mg/kg i.v., 1 hrs after dose
# [6] = 0.01 mg/kg i.v., 2 hrs after dose
# [7] = 0.01 mg/kg i.v., 3 hrs after dose
# [8] = 0.01 mg/kg i.v., 4 hrs after dose
# [9] = 0.01 mg/kg i.v., 5 hrs after dose
# [10] = 0.03 mg/kg i.v., 0 hrs (baseline)
# [11] = 0.03 mg/kg i.v., 0.5 hrs after dose
# [12] = 0.03 mg/kg i.v., 1 hrs after dose
# [13] = 0.03 mg/kg i.v., 1.5 hrs after dose
# [14] = 0.03 mg/kg i.v., 2 hrs after dose
# [15] = 0.03 mg/kg i.v., 2.5 hrs after dose
# [16] = 0.03 mg/kg i.v., 3 hrs after dose
# [17] = 0.03 mg/kg i.v., 3.5 hrs after dose
# [18] = 0.03 mg/kg i.v., 4 hrs after dose
# [19] = 0.03 mg/kg i.v., 4.5 hrs after dose
# [20] = 0.03 mg/kg i.v., 5 hrs after dose
# [21] = 0.1 mg/kg i.v., 0 hrs (baseline)
# [22] = 0.1 mg/kg i.v., 0.5 hrs after dose
# [23] = 0.1 mg/kg i.v., 1 hrs after dose
# [24] = 0.1 mg/kg i.v., 1.5 hrs after dose
# [25] = 0.1 mg/kg i.v., 2 hrs after dose
# [26] = 0.1 mg/kg i.v., 2.5 hrs after dose
# [27] = 0.1 mg/kg i.v., 3 hrs after dose
# [28] = 0.1 mg/kg i.v., 3.5 hrs after dose
# [29] = 0.1 mg/kg i.v., 4 hrs after dose
# [30] = 0.1 mg/kg i.v., 4.5 hrs after dose
# [31] = 0.1 mg/kg i.v., 5 hrs after dose
# [32] = 0.5 mg/kg i.v., 0 hrs (baseline)
# [33] = 0.5 mg/kg i.v., 0.5 hrs after dose
# [34] = 0.5 mg/kg i.v., 1 hrs after dose
# [35] = 0.5 mg/kg i.v., 1.5 hrs after dose
# [36] = 0.5 mg/kg i.v., 2 hrs after dose
# [37] = 0.5 mg/kg i.v., 2.5 hrs after dose
# [38] = 0.5 mg/kg i.v., 3 hrs after dose
# [39] = 0.5 mg/kg i.v., 3.5 hrs after dose
# [40] = 0.5 mg/kg i.v., 4 hrs after dose
# [41] = 0.5 mg/kg i.v., 4.5 hrs after dose
# [42] = 0.5 mg/kg i.v., 5 hrs after dose
compound,measurement,setting,value
"COc1ccc(S(=O)(=O)N[C@H]2CC[C@@H](N3CCN(c4ccccc4OCC(F)(F)F)CC3)CC2)cc1OC [Cpd 69, 3,4-Dimethoxy-N-cis-(4-{4-[2-(2,2,2-trifluoro-ethoxy)-phenyl]-piperazin-1-yl}-cyclohexyl)-benzenesulfonamide]","IUP, normalized % of baseline (mean)",[1]; [3],100%
same,"IUP, normalized % of baseline (mean)",[1]; [4],78.1%
same,"IUP, normalized % of baseline (mean)",[1]; [5],81.9%
same,"IUP, normalized % of baseline (mean)",[1]; [6],83.6%
same,"IUP, normalized % of baseline (mean)",[1]; [7],83.3%
same,"IUP, normalized % of baseline (mean)",[1]; [8],83.0%
same,"IUP, normalized % of baseline (mean)",[1]; [9],84.5%
same,"IUP, normalized % of baseline (mean)",[1]; [10],100%
same,"IUP, normalized % of baseline (mean)",[1]; [11],64.8%
same,"IUP, normalized % of baseline (mean)",[1]; [12],64.8%
same,"IUP, normalized % of baseline (mean)",[1]; [13],70.8%
same,"IUP, normalized % of baseline (mean)",[1]; [14],71.1%
same,"IUP, normalized % of baseline (mean)",[1]; [15],79.1%
same,"IUP, normalized % of baseline (mean)",[1]; [16],81.1%
same,"IUP, normalized % of baseline (mean)",[1]; [17],81.6%
same,"IUP, normalized % of baseline (mean)",[1]; [18],84.8%
same,"IUP, normalized % of baseline (mean)",[1]; [19],83.5%
same,"IUP, normalized % of baseline (mean)",[1]; [20],83.8%
same,"IUP, normalized % of baseline (mean)",[1]; [21],100%
same,"IUP, normalized % of baseline (mean)",[1]; [22],39.5%
same,"IUP, normalized % of baseline (mean)",[1]; [23],48.4%
same,"IUP, normalized % of baseline (mean)",[1]; [24],56.3%
same,"IUP, normalized % of baseline (mean)",[1]; [25],61.3%
same,"IUP, normalized % of baseline (mean)",[1]; [26],67.1%
same,"IUP, normalized % of baseline (mean)",[1]; [27],69.9%
same,"IUP, normalized % of baseline (mean)",[1]; [28],75.2%
same,"IUP, normalized % of baseline (mean)",[1]; [29],78.8%
same,"IUP, normalized % of baseline (mean)",[1]; [30],74.2%
same,"IUP, normalized % of baseline (mean)",[1]; [31],77.3%
same,"IUP, normalized % of baseline (mean)",[1]; [32],100%
same,"IUP, normalized % of baseline (mean)",[1]; [33],17.4%
same,"IUP, normalized % of baseline (mean)",[1]; [34],16.1%
same,"IUP, normalized % of baseline (mean)",[1]; [35],27.0%
same,"IUP, normalized % of baseline (mean)",[1]; [36],29.1%
same,"IUP, normalized % of baseline (mean)",[1]; [37],36.1%
same,"IUP, normalized % of baseline (mean)",[1]; [38],38.8%
same,"IUP, normalized % of baseline (mean)",[1]; [39],45.5%
same,"IUP, normalized % of baseline (mean)",[1]; [40],46.4%
same,"IUP, normalized % of baseline (mean)",[1]; [41],48.0%
same,"IUP, normalized % of baseline (mean)",[1]; [42],54.4%
same,"MAP, normalized % of baseline (mean)",[2]; [3],100%
same,"MAP, normalized % of baseline (mean)",[2]; [4],88.2%
same,"MAP, normalized % of baseline (mean)",[2]; [5],68.9%
same,"MAP, normalized % of baseline (mean)",[2]; [6],83.1%
same,"MAP, normalized % of baseline (mean)",[2]; [7],88.0%
same,"MAP, normalized % of baseline (mean)",[2]; [8],82.0%
same,"MAP, normalized % of baseline (mean)",[2]; [9],91.1%
same,"MAP, normalized % of baseline (mean)",[2]; [10],100%
same,"MAP, normalized % of baseline (mean)",[2]; [11],39.9%
same,"MAP, normalized % of baseline (mean)",[2]; [12],40.9%
same,"MAP, normalized % of baseline (mean)",[2]; [13],44.1%
same,"MAP, normalized % of baseline (mean)",[2]; [14],61.0%
same,"MAP, normalized % of baseline (mean)",[2]; [15],59.4%
same,"MAP, normalized % of baseline (mean)",[2]; [16],59.2%
same,"MAP, normalized % of baseline (mean)",[2]; [17],59.8%
same,"MAP, normalized % of baseline (mean)",[2]; [18],58.4%
same,"MAP, normalized % of baseline (mean)",[2]; [19],71.1%
same,"MAP, normalized % of baseline (mean)",[2]; [20],90.3%
same,"MAP, normalized % of baseline (mean)",[2]; [21],100%
same,"MAP, normalized % of baseline (mean)",[2]; [22],45.5%
same,"MAP, normalized % of baseline (mean)",[2]; [23],47.4%
same,"MAP, normalized % of baseline (mean)",[2]; [24],35.0%
same,"MAP, normalized % of baseline (mean)",[2]; [25],44.0%
same,"MAP, normalized % of baseline (mean)",[2]; [26],54.0%
same,"MAP, normalized % of baseline (mean)",[2]; [27],51.3%
same,"MAP, normalized % of baseline (mean)",[2]; [28],56.4%
same,"MAP, normalized % of baseline (mean)",[2]; [29],47.0%
same,"MAP, normalized % of baseline (mean)",[2]; [30],73.3%
same,"MAP, normalized % of baseline (mean)",[2]; [31],84.3%
same,"MAP, normalized % of baseline (mean)",[2]; [32],100%
same,"MAP, normalized % of baseline (mean)",[2]; [33],27.6%
same,"MAP, normalized % of baseline (mean)",[2]; [34],18.4%
same,"MAP, normalized % of baseline (mean)",[2]; [35],16.0%
same,"MAP, normalized % of baseline (mean)",[2]; [36],18.3%
same,"MAP, normalized % of baseline (mean)",[2]; [37],19.4%
same,"MAP, normalized % of baseline (mean)",[2]; [38],23.8%
same,"MAP, normalized % of baseline (mean)",[2]; [39],19.2%
same,"MAP, normalized % of baseline (mean)",[2]; [40],32.3%
same,"MAP, normalized % of baseline (mean)",[2]; [41],32.1%
same,"MAP, normalized % of baseline (mean)",[2]; [42],29.4%
